Measured values from patent US11655216B2 (priority 2016, dated 2023).
pEC50: −log10 of the molar value. Where two headings read alike, the source gives them in different places.

Assays:
[1] = target: T1, glutathione-S-transferase (GST) tagged LXRbeta LBD (ligand binding domain) (Homo sapiens, UniProt P55055); assay: LanthaScreen TR-FRET Liver X Receptor Coactivator Assay, LXR beta; format: biochemical; conditions: for pEC50: LXR beta IP, potency (Inflection Point), compound-induced co-activator recruitment, TR-FRET; for Emax: read-out: LXR beta actiivty at max dose, efficacy (% Emax) in relation to reference dual agonist T0901317
T1 construct: purchased Invitrogen pv4658
T1 sequence (P55055 222-460 limits assumed): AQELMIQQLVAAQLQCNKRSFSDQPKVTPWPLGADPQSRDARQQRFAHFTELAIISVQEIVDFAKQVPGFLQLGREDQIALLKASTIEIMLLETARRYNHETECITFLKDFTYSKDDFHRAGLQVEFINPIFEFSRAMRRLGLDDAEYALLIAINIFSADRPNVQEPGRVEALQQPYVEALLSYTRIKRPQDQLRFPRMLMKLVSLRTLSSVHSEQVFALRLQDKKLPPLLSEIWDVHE
Experimental: (§1) While running the LanthaScreen™ TR-FRET Liver X Receptor Coactivator Assay, LXR alpha-LBD or LXR beta-LBD was added to ligand test compounds followed by addition of a mixture of a fluorescein-labelled coactivator peptide and terbium-conjugated anti-GST antibody. After an incubation period at room temperature, TR-FRET (time-resolved fluorescence resonance energy transfer) was measured using a filter-based instrument capable of TR-FRET, e.g. PerkinElmer Envision.

[2] = target: T2, glutathione-S-transferase (GST) tagged LXRalpha LBD (ligand binding domain) (Homo sapiens, UniProt Q13133); assay: biochemical
T2 construct: purchased Invitrogen pv4655
T2 sequence (Q13133 209-447 limits assumed): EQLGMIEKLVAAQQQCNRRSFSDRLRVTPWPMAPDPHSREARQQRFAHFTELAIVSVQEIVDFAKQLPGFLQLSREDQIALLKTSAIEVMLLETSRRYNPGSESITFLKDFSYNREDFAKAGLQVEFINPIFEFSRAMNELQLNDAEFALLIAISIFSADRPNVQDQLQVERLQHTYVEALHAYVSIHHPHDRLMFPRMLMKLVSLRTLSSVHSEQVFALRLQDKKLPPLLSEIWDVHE
Experimental: as §1

[3] = LXR alpha IP, potency (Inflection Point), compound-induced co-activator recruitment, TR-FRET
[4] = read-out: LXR alpha actiivty at max dose, efficacy (% Emax) in relation to reference dual agonist T0901317
[5] = potency (Inflection Point), compound-induced co-activator recruitment, TR-FRET
[6] = efficacy (% Emax) in relation to reference dual agonist T0901317, read-out: LXR alpha actiivty at max dose
[7] = potency (Inflection Point), compound-induced co-activator recruitment, TR-FRET, read-out: LXR alpha IP
[8] = efficacy (% Emax) in relation to reference dual agonist T0901317

LXR alpha IP [2, 5] | pEC50 ([2]; LXR alpha IP) | Emax ([2]; read-out: LXR alpha actiivty at max dose) [%] | LXR beta actiivty at max dose [1, 8] [%] | LXR alpha actiivty at max dose [2, 8] [%] | Structure (SMILES) | pEC50 [1] | Emax [1] [%] | pEC50 [2, 3] | Emax [2, 4] [%] | Emax [2, 6] [%] | pEC50 [2, 7]
 |  |  |  |  | CC(COc1ccc(C(=O)N(C)C)c(Cl)c1)CC(C)C1CCN(C(=O)C(O)(c2ccccc2)C(F)(F)F)CC1 (single isomer, unassigned) [Example 31-1, 2-chloro-N,N-dimethyl-4-(2-methyl-4-(1-((R or S)-3,3,3-trifluoro-2-hydroxy-2-phenylpropanoyl)piperidin-4-yl)pentyloxy)benzamide] | 7.60 | 56 | 6.55 | 27 |  | 
No IP |  |  |  |  | COc1cccc(C(O)(C(=O)N2CCC(C(C)CC(C)COc3ccc(C(=O)N(C)C)c(Cl)c3)CC2)C(F)(F)F)c1 (single isomer, unassigned) [Example 31-2, 2-chloro-N,N-dimethyl-4-(2-methyl-4-(1-((R or S)-3,3,3-trifluoro-2-hydroxy-2-(3-methoxyphenyl)propanoyl)piperidin-4-yl)pentyloxy)benzamide] | 7.72 | 38 |  | 3 |  | 
 |  |  |  |  | CN(C)C(=O)c1ccc(OCC[C@H]2C[C@H]2C2CCN(C(=O)[C@](O)(c3ccccc3)C(F)(F)F)CC2)cc1C#N (single isomer, unassigned) [Example 11-1, 2-cyano-N,N-dimethyl-4-(2-((1R,2S or 1S,2R)-2-(1-((R or S)-3,3,3-trifluoro-2-hydroxy-2-phenylpropanoyl)piperidin-4-yl)cyclopropyl)ethoxy)benzamide] | 6.97 | 78 |  |  | 23 | 5.85
 |  |  |  |  | CN(C)C(=O)c1ccc(OCCCCC2CCN(C(=O)C(O)(c3cccc(OC(F)(F)F)c3)C(F)(F)F)CC2)cc1Cl (single isomer, unassigned) [Example 3-9, (R or S)-2-chloro-N,N-dimethyl-4-(4-(1-(3,3,3-trifluoro-2-hydroxy-2-(3-(trifluoromethoxy)phenyl)propanoyl)piperidin-4-yl)butoxy)benzamide] | 7.82 | 64 | 6.54 | 17 |  | 
 |  |  |  |  | COc1cccc(C(O)(C(=O)N2CCC(C(F)(F)CCCOc3ccc(C(=O)N(C)C)c(Cl)c3)CC2)C(F)(F)F)c1 (single isomer, unassigned) [Example 22-1, (R or S)-2-chloro-4-(4,4-difluoro-4-(1-(3,3,3-trifluoro-2-hydroxy-2-(3-methoxyphenyl)propanoyl)piperidin-4-yl)butoxy)-N,N-dimethylbenzamide] | 8.15 | 67 |  |  | 32 | 6.67
 |  |  |  |  | CN(C)C(=O)c1ccc(OCC[C@@H]2C[C@@H]2C2CCN(C(=O)[C@@](O)(c3ccccc3)C(F)(F)F)CC2)nc1Cl (single isomer, unassigned) [Example 10-6, 2-chloro-N,N-dimethyl-6-(2-((1S,2R or 1R,2S)-2-(1-((S or R)-3,3,3-trifluoro-2-hydroxy-2-phenylpropanoyl)piperidin-4-yl)cyclopropyl)ethoxy) nicotinamide] | 7.92 | 71 | 6.69 | 36 |  | 
 | 6.12 | 9 |  |  | CN(C)C(=O)c1ccc(OCCC[C@H]2CC23CCN(C(=O)[C@@](O)(c2ccccc2)C(F)(F)F)CC3)cc1Cl (single isomer, unassigned) [Example 14-1, 2-chloro-N,N-dimethyl-4-(3-((S or R)-6-((S or R)-3,3,3-trifluoro-2-hydroxy-2-phenylpropanoyl)-6-azaspiro[2.5]octan-1-yl)propoxy)benzamide] | 7.19 | 99 |  |  |  | 
 |  |  |  |  | CN(C)C(=O)c1ccc(OCCCCC2CCN(S(=O)(=O)c3ccccc3C#N)CC2)nc1Cl [Example 7-3, 2-chloro-6-(4-(1-(2-cyanophenylsulfonyl)piperidin-4-yl)butoxy)-N,N-dimethylnicotinamide] | 6.95 | 120 | 5.53 | 57 |  | 
 |  |  |  |  | CN(C)C(=O)c1ccc(OC2CC(CC3CCN(C(=O)[C@](O)(c4ccccc4)C(F)(F)F)CC3)C2)cc1Cl (single isomer, unassigned) [Example 37-11, (R or S)-2-chloro-N,N-dimethyl-4-(3-((1-(3,3,3-trifluoro-2-hydroxy-2-phenylpropanoyl)piperidin-4-yl)methyl)cyclobutoxy) benzamide] | 7.04 | 113 |  | 33 |  | 6.25
 |  |  |  |  | CN(C)C(=O)c1ccc(OCCCCC2CCN(S(=O)(=O)c3c(Cl)cccc3Cl)CC2)nc1Cl [Example 7-2, 2-chloro-6-(4-(1-(2,6-dichlorophenylsulfonyl)piperidin-4-yl)butoxy)-N,N-dimethylnicotinamide] | 7.64 | 122 | 6.37 | 80 |  | 
 |  |  |  |  | COc1cccc(C(O)(C(=O)N2CCC(C3CC3(C)COc3ccc(C(=O)N(C)C)c(Cl)c3)CC2)C(F)(F)F)c1 (single isomer, unassigned) [Example 16-1, 2-chloro-N,N-dimethyl-4-((1-methyl-2-(1-((R or S)-3,3,3-trifluoro-2-hydroxy-2-(3-methoxyphenyl)propanoyl)piperidin-4-yl)cyclopropyl)methoxy)benzamide] | 7.18 | 84 | 6.02 | 18 |  | 
 |  |  |  |  | CC(CCC1CCN(C(=O)[C@](O)(c2ccccc2)C(F)(F)F)CC1)COc1ccc(C(=O)N(C)C)c(Cl)c1 (single isomer, unassigned) [Example 23-1, 2-chloro-N,N-dimethyl-4-((R or S)-2-methyl-4-(1-((R or S)-3,3,3-trifluoro-2-hydroxy-2-phenylpropanoyl)piperidin-4-yl)butoxy)benzamide] | 7.62 | 74 |  |  | 23 | 6.36
 |  |  |  |  | O=C(c1ccc(OCCCCC2CCN(C(=O)[C@](O)(c3ccccc3)C(F)(F)F)CC2)cc1Cl)N1CC[C@@H](O)C1 (single isomer, unassigned) [Example 8-3, (R or S)-1-(4-(4-(3-chloro-4-((R or S)-3-hydroxy-pyrrolidine-1-carbonyl)phenoxy)butyl)piperidin-1-yl)-3,3,3-trifluoro-2-hydroxy-2-phenylpropan-1-one] | 7.77 | 39 | 6.00 | 26 |  | 
No IP |  |  |  |  | CN(C)C(=O)c1ccc(OCCC2CC23CCN(C(=O)C2(c4cncnc4)CCC2)CC3)cc1Cl (single isomer, unassigned) [Example 12-19, (S or R)-2-chloro-N,N-dimethyl-4-(2-(6-(1-(pyrimidin-5-yl)cyclobutanecarbonyl)-6-azaspiro[2.5]octan-1-yl)ethoxy)benzamide] | 6.37 | 12 |  | 14 |  | 
 |  |  | 77 | 48 | CC(CCCOc1ccc(C(=O)N(C)C)c(Cl)c1)C1CCN(C(=O)C(O)(c2ccccc2)C(F)(F)F)CC1 (single isomer, unassigned) [Example 26-3, 2-chloro-N,N-dimethyl-4-((S or R)-4-(1-((R or S)-3,3,3-trifluoro-2-hydroxy-2-phenylpropanoyl)piperidin-4-yl)pentyloxy)benzamide] | 8.22 |  | 6.90 |  |  | 
 |  |  |  |  | CN(C)C(=O)c1ccc(OCCCCC2CCN(C(=O)C(O)(c3cccc(-c4cnn(C)c4)c3)C(F)(F)F)CC2)cc1Cl (single isomer, unassigned) [Example 3-19, (R or S)-2-chloro-N,N-dimethyl-4-(4-(1-(3,3,3-trifluoro-2-hydroxy-2-(3-(1-methyl-1H-pyrazol-4-yl)phenyl)propanoyl)piperidin-4-yl)butoxy)benzamide] | 6.91 | 24 | 5.94 | 25 |  | 
 |  |  |  |  | CN(C)C(=O)c1ccc(OCCC2CC23CCN(C(=O)C2(c4cc(F)ccc4F)CCC2)CC3)cc1Cl (single isomer, unassigned) [Example 12-11, (S or R)-2-chloro-4-(2-(6-(1-(2,5-difluorophenyl)cyclobutanecarbonyl)-6-azaspiro[2.5]octan-1-yl)ethoxy)-N,N-dimethylbenzamide] | 7.92 | 87 | 6.35 | 24 |  | 

Structure (SMILES) | LXR alpha IP [2, 5] | pEC50 ([2]; LXR alpha IP) | Emax ([2]; read-out: LXR alpha actiivty at max dose) [%] | LXR beta actiivty at max dose [1, 8] [%] | LXR alpha actiivty at max dose [2, 8] [%] | pEC50 [1] | Emax [1] [%] | pEC50 [2, 3] | Emax [2, 4] [%] | Emax [2, 6] [%] | pEC50 [2, 7]
CCOc1cccc([C@@](O)(C(=O)N2CCC(C[C@H]3C[C@@H](Oc4ccc(C(=O)N(C)C)c(Cl)c4)C3)CC2)C(F)(F)F)c1 (single isomer, unassigned) [Example 37-3, 2-chloro-4-((1R,3s)-3-((1-((R or S)-2-(3-ethoxyphenyl)-3,3,3-trifluoro-2-hydroxypropanoyl)piperidin-4-yl)methyl)cyclobutoxy)-N,N-dimethylbenzamide] | No IP |  |  |  |  | 7.77 | 124 |  | 9 |  | 
